For experiment [1], the system named is HepG2. The experiment is described as follows: Induction of cell cycle arrest in Homo sapiens (human) HepG2 cells assessed as subG1 phase cells at 0.08 ug/ml after 24 hr by flow cytometric analysis (reference value: 3.57 +/- 0.03%). Type of experiment: functional. In general terms: A flow cytometer gives signals particle by particle.
The subject of experiment [2] is HepG2. The experiment is described as follows: Induction of cell cycle arrest in Homo sapiens (human) HepG2 cells assessed as increase in subG1 phase cells after 24 hr by flow cytometric analysis. Type of experiment: functional, cell-based.
The subject of experiment [3] is HepG2. The experiment is described as follows: Induction of cell cycle arrest in Homo sapiens (human) HepG2 cells assessed as G2/M phase cells at 0.08 ug/ml after 24 hr by flow cytometric analysis (reference value: 12.92 +/- 0.27%). Type of experiment: functional.
Experiment [4] deals with HepG2. Briefly: Induction of cell cycle arrest in Homo sapiens (human) HepG2 cells assessed as S phase cells at 0.08 ug/ml after 24 hr by flow cytometric analysis (reference value: 32.84 +/- 1.06%). The format is functional.
In experiment [5] the test system is HepG2. The experiment is described as follows: Induction of cell cycle arrest in Homo sapiens (human) HepG2 cells assessed as G1 phase cells at 0.08 ug/ml after 24 hr by flow cytometric analysis (reference value: 50.68 +/- 1.42%). Type of experiment: functional.
In experiment [6] the test system is HepG2. Briefly: Induction of cell cycle arrest in Homo sapiens (human) HepG2 cells assessed as G2/M phase cells at 0.06 ug/ml after 24 hr by flow cytometric analysis (reference value: 12.92 +/- 0.27%). The format is functional.
Experiment [7] deals with HepG2. The experiment is described as follows: Induction of cell cycle arrest in Homo sapiens (human) HepG2 cells assessed as S phase cells at 0.06 ug/ml after 24 hr by flow cytometric analysis (reference value: 32.84 +/- 1.06%). Type of experiment: functional.
Experiment [8] relates to HepG2. Briefly: Cytotoxicity against Homo sapiens (human) HepG2 cells after 24 hr by MTT assay. The format is functional, cell-based. As to conditions: HepG2, 24 h. (Tetrazolium dyes change colour on reduction, which living cells bring about.)
Experiment [9] has as its system HepG2. Briefly: Cytotoxicity against Homo sapiens (human) HepG2 cells assessed as inhibition of [3H]thymidine incorporation incubated for 3 hr prior to [3h]thymidine incorporation measured after 2 hr by liquid scintillation counting. Type of experiment: functional, cell-based. (In general: Incorporation of labelled thymidine or its analogues reports DNA synthesis.)

Experiment [10] deals with HepG2. Briefly: Induction of cell cycle arrest in Homo sapiens (human) HepG2 cells assessed as subG1 phase cells at 0.06 ug/ml after 24 hr by flow cytometric analysis (reference value: 3.57 +/- 0.03%). The format is functional.
Experiment [11] concerns HepG2. Briefly: Induction of cell cycle arrest in Homo sapiens (human) HepG2 cells assessed as G1 phase cells at 0.06 ug/ml after 24 hr by flow cytometric analysis (reference value: 50.68 +/- 1.42%). Type of experiment: functional.
The nature of experiment [12]: Antioxidant activity assessed as inhibition of ABTS radical production after 20 min by spectrophotometric analysis. Type of experiment: functional.
Experiment [13] has as its system Radical scavenging activity. The experiment is described as follows: Antioxidant activity assessed as inhibition of DPPH radical production after 20 min by spectrophotometric analysis. Type of experiment: functional.
Experiment [14] deals with HepG2. The experiment is described as follows: Cytotoxicity against Homo sapiens (human) HepG2 cells assessed as chromatin condensation after 24 hr by Hoechst-staining method. Type of experiment: functional, cell-based.

Values after ≈ are worked out from the molar mass of the structure shown. Active and inactive are the calls of the source. No cut-off for these calls is given here.

In the case of `Clc1ccc(-c2n[nH]cc2-c2nn3c(COc4ccc5ccccc5c4)nnc3s2)cc1`, the Activity in [1] is 12.33%; in experiment [2], “Dose-dependent effect”; in experiment [3] it was 11.33%; in experiment [4], 23.68%; in [5], 52.65%; in experiment [6], 10.58%. The Activity in experiment [7] is 28.82%; in experiment [10] it was 4%; in experiment [11], 56.59%; in experiment [14], “Dose-dependent effect”. Also, the values for the IC50 in experiment [8] and in experiment [13] were 0.8 µg/mL (≈ 1.74 µM) and 1.023 µg/mL (≈ 2.23 µM), respectively. Besides, the inhibition result in [9] was “Dose-dependent effect”. The inhibition entry in [12] is “Active”.

Take `O=C1O[C@H]([C@@H](O)CO)C(O)=C1O` [ASCORBIC ACID]: the inhibition entry in experiment [12] is “Active”. Moreover, the IC50 in [13] is 1.46 µg/mL (≈ 8.29 µM).

A word on the IC50: it is the concentration at which inhibition is half-maximal.

For the origin of these results see ChEMBL document CHEMBL3044704, “Synthesis, characterization, antioxidant, and anticancer studies of 6-[3-(4-chlorophenyl)-1H-pyrazol-4-yl]-3-[(2-naphthyloxy)methyl][1,2,4]triazolo[3,4-b][1,3,4]thiadiazole in HepG2 cell lines” (Med Chem Res, 2011).
